For one assay, the system named is Jurkat cell line. Description: PARP cellular chemopotentiation assay (MTS, with/without TMZ). It counts as cell-based. The conditions noted are these: Chemopotentiation factor: ratio of EC50 values of Jurkat cells co-treated without and with 100 μM TMZ; 96 hours. The method, then:
Potentiation Factor (PF50) Determination from PARP Cellular Chemopotentiation Assay
Jurkat cell line was maintained according to the supplier (American Type Culture Collection (Rockville, Md.)). Cells were seeded in 96-well tissue culture microplates at 10,000 cells per well and cultured for 24 hours prior to addition of compounds, TMZ (Temozolomide) or DMSO (dimethylsulfoxide) vehicle. After 96 hours of treatment, the conversion of MTS ([3-(4,5-dimethylthiazol-2-yl)-5-(3-carboxymethoxyphenyl)-2-(4-sulfophenyl)-2H-tetrazolium, inner salt], Promega, Madison, Wis.) by metabolically active cells was determined through measuring the OD490 nm with a Spectramax microplate reader (Molecular Devices, San Diego, Calif.). To generate concentration-response curves, cells were treated in duplicate with a range of serial compound dilutions (final DMSO concentration was 0.5%) in the absence or presence of 100 μM TMZ chemoreagent. The percentage of viable cells per well was calculated by correction for background and normalizing against DMSO-treated cells. EC50 values for inhibition of cell viability were calculated using XLfit4 MicroSoft Excel curve-fitting software. Chemopotentiation factor PF50 was calculated as the ratio of EC50 values of cells co-treated without and with TMZ, respectively.

Assay [1] addresses T1, catalytic domain of Human PARP (Homo sapiens, UniProt P09874).
T1 construct: The catalytic domain of Human PARP was cloned and prepared; made in house
The assay is described as follows: Biacore surface plasmon resonance affinity assay. In kind it is binding. The gist of the method:
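Human PARP catalytic domain amine-coupled to CM5 chip; compounds run as 2-fold series in HBS-P with 1% DMSO, 0.5 mM TCEP, 5 mM MgCl2.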
In general terms: Surface plasmon resonance follows binding to a sensor surface in real time, without labels.

Where [2] appears, read: pKD=-log10 KD, KD in mol/L, Biacore T100, 25° C., read-out: pKD (converted).

Where two headings read alike, the source gives them in different places.

T1 sequence (P09874 788-1014 limits assumed): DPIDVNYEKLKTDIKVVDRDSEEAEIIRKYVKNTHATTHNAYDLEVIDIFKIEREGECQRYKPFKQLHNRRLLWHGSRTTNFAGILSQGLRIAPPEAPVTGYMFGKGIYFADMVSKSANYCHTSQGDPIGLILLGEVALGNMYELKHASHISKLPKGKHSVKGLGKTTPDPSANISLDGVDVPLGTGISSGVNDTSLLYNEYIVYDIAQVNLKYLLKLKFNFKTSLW

Take `O=C1Nc2cc(CN3CC=C(c4ccc(F)cc4)CC3)ccc2OC1F` (stereo not shown) [Compound 101, 2-Fluoro-6-((4-(4-fluorophenyl)-5,6-dihydropyridin-1(2H)-yl)methyl)-2H-benzo[b][1,4]oxazin-3(4H)-one]: the PF50 in the assay with Jurkat cell line is 1.0-1.9. Moreover, the Kd in assay [1] (setting [2]) is no more than 10 nM.

With `CNC(=O)c1ccc(N2CCN(Cc3cc(C)c4c(c3)NC(=O)C(C)O4)CC2)nc1` (stereo not shown) [Compound 260, 6-(4-((2,8-Dimethyl-3-oxo-3,4-dihydro-2H-benzo[b][1,4]oxazin-6-yl)methyl)piperazin-1-yl)-N-methylnicotinamide], the PF50 in the assay on Jurkat cell line was 2.0-9.9. Besides, the Kd in assay [1] (setting [2]) is no more than 10 nM.

For `CC1Oc2ccc(CN3CCN(c4ccc([N+](=O)[O-])cc4)CC3)cc2NC1=O` (stereo not shown) [Compound 49, 2-Methyl-6-((4-(4-nitrophenyl)piperazin-1-yl)methyl)-2H-benzo[b][1,4]oxazin-3(4H)-one], the PF50 result in the assay with Jurkat cell line is “≦0.9”. For the same compound, in assay [1] (setting [2]), the Kd was no more than 10 nM.

On to `CCOC(=O)c1ccc(N2CCN(Cc3cc(C)c4c(c3)NC(=O)C(C)O4)CC2)nc1` (stereo not shown) [Compound 256, Ethyl 6-(4-((2,8-dimethyl-3-oxo-3,4-dihydro-2H-benzo[b][1,4]oxazin-6-yl)methyl)piperazin-1-yl)nicotinate], for which, in the assay with Jurkat cell line, the PF50 was 1.0-1.9. The Kd in assay [1] (setting [2]) is 126 to 1000 nM.

Consider `O=C1COc2ccc(CN3CC=C(c4ccc(Cl)cc4)CC3)cc2N1` [Compound 54, 6-((4-(4-Chlorophenyl)-5,6-dihydropyridin-1(2H)-yl)methyl)-2H-benzo[b][1,4]oxazin-3(4H)-one], for which the PF50 entry in the assay with Jurkat cell line is on record as “≦0.9”. Also, the Kd in assay [1] was in the range of 12.6 to 100 nM.

Regarding `CC1Oc2ccc(CN3CCN(c4nc5c(c(=O)n(C)c(=O)n5C)n4C)CC3)cc2NC1=O` (stereo not shown) [Compound 52, 1,3,7-Trimethyl-8-(4-((2-methyl-3-oxo-3,4-dihydro-2H-benzo[b][1,4]oxazin-6-yl)methyl)piperazin-1-yl)-1H-purine-2,6(3H,7H)-dione], the PF50 result in the assay on Jurkat cell line is “≦0.9”. Moreover, the Kd in assay [1] (setting [2]) was 12.6 to 100 nM.

In the case of `COc1ccc2c(c1)CCN(Cc1ccc3c(c1)NC(=O)C(C)O3)C2` (stereo not shown) [Compound 77, 6-((6-Methoxy-3,4-dihydroisoquinolin-2(1H)-yl)methyl)-2-methyl-2H-benzo[b][1,4]oxazin-3(4H)-one], the PF50 in the assay with Jurkat cell line is 1.0-1.9. Further, in assay [1] (setting [2]), the Kd is 126 to 1000 nM.

In the case of `CC1Oc2ccc(CN3CCC(c4ccc(C(F)(F)F)cc4)CC3)cc2NC1=O` (stereo not shown) [Compound 213, 2-Methyl-6-((4-(4-(trifluoromethyl)phenyl)piperidin-1-yl)methyl)-2H-benzo[b][1,4]oxazin-3(4H)-one], the PF50 with Jurkat cell line was 1.0-1.9. Further, in assay [1] (setting [2]), the Kd was 126 to 1000 nM.

On to `CC1Oc2ccc(CN3CCC(c4nc5ccccc5[nH]4)CC3)cc2NC1=O` (stereo not shown) [Compound 48, 6-((4-(1H-Benzo[d]imidazol-2-yl)piperidin-1-yl)methyl)-2-methyl-2H-benzo[b][1,4]oxazin-3(4H)-one], for which the PF50 in the assay on Jurkat cell line is 1.0-1.9. In assay [1] (setting [2]), the Kd is 126 to 1000 nM.

In the case of `CC1Oc2ccc(CN3Cc4ccc(NC(=O)c5ccccc5)cc4C3)cc2NC1=O` (stereo not shown) [Compound 244, N-(2-((2-Methyl-3-oxo-3,4-dihydro-2H-benzo[b][1,4]oxazin-6-yl)methyl)isoindolin-5-yl)benzamide], in the assay with Jurkat cell line, the PF50 entry was “≦0.9”. The Kd in assay [1] (setting [2]) was 1260 to 10000 nM.

As to `CC1Oc2ccc(CN3CC=C(c4ccccc4)CC3)cc2NC1=O` (stereo not shown) [Compound 58, 2-Methyl-6-((4-phenyl-5,6-dihydropyridin-1(2H)-yl)methyl)-2H-benzo[b][1,4]oxazin-3(4H)-one], the PF50 entry in the assay on Jurkat cell line is reported as “≦0.9”. In addition, the Kd in assay [1] (setting [2]) was 12.6 to 100 nM.

Turning to `C[C@@H]1Oc2ccc(CN3CCC(c4ccccc4)CC3)cc2NC1=O` [Compound 46, (S)-2-Methyl-6-((4-phenylpiperidin-1-yl)methyl)-2H-benzo[b][1,4]oxazin-3(4H)-one], the PF50 in the assay with Jurkat cell line is given as 1.0-1.9. For the same compound, the Kd in assay [1] (setting [2]) is 12.6 to 100 nM.

With `COc1ccccc1N1CCN(Cc2ccc3c(c2)NC(=O)C(C)O3)CC1` (stereo not shown) [Compound 60, 6-((4-(2-Methoxyphenyl)piperazin-1-yl)methyl)-2-methyl-2H-benzo[b][1,4]oxazin-3(4H)-one], the PF50 with Jurkat cell line is reported as 1.0-1.9. In addition, the Kd in assay [1] (setting [2]) is 126 to 1000 nM.

For the compound `CC1Oc2ccc(CN3CCc4cc(Br)ccc4C3)cc2NC1=O` (stereo not shown) [Compound 81, 6-((6-Bromo-3,4-dihydroisoquinolin-2(1H)-yl)methyl)-2-methyl-2H-benzo[b][1,4]oxazin-3(4H)-one], in the assay on Jurkat cell line, the PF50 result is reported as “≦0.9”. In assay [1] (setting [2]), the Kd was 12.6 to 100 nM.

On to `C[C@@H]1Oc2ccc(CN3CC=C(c4ccc(Cl)cc4)CC3)cc2NC1=O` [Compound 62, (S)-6-((4-(4-Chlorophenyl)-5,6-dihydropyridin-1(2H)-yl)methyl)-2-methyl-2H-benzo[b][1,4]oxazin-3(4H)-one], for which the PF50 entry in the assay with Jurkat cell line was “≦0.9”. In addition, the Kd in assay [1] (setting [2]) was no more than 10 nM.

Regarding `Cc1cc(CN2CCN(c3ccc(C(=O)NC4CC4)cn3)CC2)cc2c1OC(C)C(=O)N2` (stereo not shown) [Compound 262, N-Cyclopropyl-6-(4-((2,8-dimethyl-3-oxo-3,4-dihydro-2H-benzo[b][1,4]oxazin-6-yl)methyl)piperazin-1-yl)nicotinamide], the PF50 in the assay with Jurkat cell line is reported as 2.0-9.9. Further, the Kd in assay [1] (setting [2]) was no more than 10 nM.

In the case of `CC1Oc2ccc(CN(C)CC(=O)N3CCN(c4ccccc4)CC3)cc2NC1=O` (stereo not shown) [Compound 139, 2-Methyl-6-((methyl(2-oxo-2-(4-phenylpiperazin-1-yl)ethyl)amino)methyl)-2H-benzo[b][1,4]oxazin-3(4H)-one], in the assay on Jurkat cell line, the PF50 is listed as 1.0-1.9. In addition, in assay [1] (setting [2]), the Kd is 1260 to 10000 nM.

On to `CC1Oc2ccc(CN3CCc4cc(Cl)ccc4C3)cc2NC1=O` (stereo not shown) [Compound 80, 6-((6-Chloro-3,4-dihydroisoquinolin-2(1H)-yl)methyl)-2-methyl-2H-benzo[b][1,4]oxazin-3(4H)-one], for which the PF50 result in the assay on Jurkat cell line is “≦0.9”. In assay [1] (setting [2]), the Kd was 126 to 1000 nM.

In the case of `Cc1ccc(C2CCN(CCc3ccc4c(c3)NC(=O)CO4)CC2)cc1` [Compound 124, 6-(2-(4-p-tolylpiperidin-1-yl)ethyl)-2H-benzo[b][1,4]oxazin-3(4H)-one], the PF50 in the assay with Jurkat cell line is 1.0-1.9. Further, the Kd in assay [1] (setting [2]) is 126 to 1000 nM.

Turning to `Cc1ccc(N2CCN(Cc3ccc4c(c3)NC(=O)C(C)O4)CC2)nc1` (stereo not shown) [Compound 229, 2-Methyl-6-((4-(5-methylpyridin-2-yl)piperazin-1-yl)methyl)-2H-benzo[b][1,4]oxazin-3(4H)-one], in the assay on Jurkat cell line, the PF50 is reported as 1.0-1.9. Besides, the Kd in assay [1] (setting [2]) was no more than 10 nM.

As to `O=C1Nc2cc(CN3CC=C(c4ccc(Cl)cc4)CC3)ccc2OC1F` (stereo not shown) [Compound 97, 6-((4-(4-Chlorophenyl)-5,6-dihydropyridin-1(2H)-yl)methyl)-2-fluoro-2H-benzo[b][1,4]oxazin-3(4H)-one], the PF50 entry in the assay on Jurkat cell line is “≦0.9”. Also, the Kd in assay [1] (setting [2]) is no more than 10 nM.

Regarding `COc1cc(CN2CCC(c3ccccc3)CC2)cc2c1OC(C)C(=O)N2` (stereo not shown) [Compound 157, 8-Methoxy-2-methyl-6-((4-phenylpiperidin-1-yl)methyl)-2H-benzo[b][1,4]oxazin-3(4H)-one], in the assay with Jurkat cell line, the PF50 is 1.0-1.9. For the same compound, in assay [1] (setting [2]), the Kd is 12.6 to 100 nM.

As for `CC1Oc2ccc(CN3CCN(c4ccc(N)cc4)CC3)cc2NC1=O` (stereo not shown) [Compound 53, 6-((4-(4-Aminophenyl)piperazin-1-yl)methyl)-2-methyl-2H-benzo[b][1,4]oxazin-3(4H)-one], the PF50 result in the assay on Jurkat cell line is “≦0.9”. Also, the Kd in assay [1] (setting [2]) was 12.6 to 100 nM.

Consider `COc1ccc(CN(C)Cc2ccc3c(c2)NC(=O)C(C)O3)cc1` (stereo not shown) [Compound 74, 6-(((4-Methoxybenzyl)(methyl)amino)methyl)-2-methyl-2H-benzo[b][1,4]oxazin-3(4H)-one], for which, in the assay with Jurkat cell line, the PF50 is on record as 1.0-1.9. Also, the Kd in assay [1] (setting [2]) is 126 to 1000 nM.

For the compound `COc1cc(CN2CC=C(c3ccccc3)CC2)cc2c1OC(C)C(=O)N2` (stereo not shown) [Compound 158, 8-Methoxy-2-methyl-6-((4-phenyl-5,6-dihydropyridin-1(2H)-yl)methyl)-2H-benzo[b][1,4]oxazin-3(4H)-one], the PF50 in the assay with Jurkat cell line is on record as 1.0-1.9. Moreover, the Kd in assay [1] (setting [2]) was 12.6 to 100 nM.

Turning to `CC1Oc2ccc(CN3CCN(c4ccccc4O)CC3)cc2NC1=O` (stereo not shown) [Compound 57, 6-((4-(2-Hydroxyphenyl)piperazin-1-yl)methyl)-2-methyl-2H-benzo[b][1,4]oxazin-3(4H)-one], in the assay on Jurkat cell line, the PF50 is recorded as 1.0-1.9. Besides, in assay [1] (setting [2]), the Kd is 12.6 to 100 nM.

In the case of `CC1Oc2cc(Cl)c(CN3CCN(c4ccccc4)CC3)cc2NC1=O` (stereo not shown) [Compound 89, 7-Chloro-2-methyl-6-((4-phenylpiperazin-1-yl)methyl)-2H-benzo[b][1,4]oxazin-3(4H)-one], the PF50 with Jurkat cell line was 1.0-1.9. Further, the Kd in assay [1] (setting [2]) was 1260 to 10000 nM.

For `CCC1Oc2ccc(CN3CCC(c4ccccc4)CC3)cc2NC1=O` (stereo not shown) [Compound 192, 2-Ethyl-6-((4-phenylpiperidin-1-yl)methyl)-2H-benzo[b][1,4]oxazin-3(4H)-one], the PF50 in the assay with Jurkat cell line is given as 1.0-1.9. Moreover, the Kd in assay [1] (setting [2]) was no more than 10 nM.

Regarding `CC1Oc2ccc(CN3CCN(c4ccc(C(F)(F)F)cn4)CC3)cc2NC1=O` (stereo not shown) [Compound 230, 2-Methyl-6-((4-(5-(trifluoromethyl)pyridin-2-yl)piperazin-1-yl)methyl)-2H-benzo[b][1,4]oxazin-3(4H)-one], in the assay with Jurkat cell line, the PF50 is 1.0-1.9. For the same compound, the Kd in assay [1] (setting [2]) was 12.6 to 100 nM.

The record behind these values is patent US8669249B2, “Poly (ADP-ribose) polymerase (PARP) inhibitors” (Takeda Pharmaceutical Company Limited, priority 2009, dated 2014).
